From patent US10669545B2, “Tumor cell malignant transformation suppressor and anti-tumor agent” (JAPAN SCIENCE AND TECHNOLOGY AGENCY, priority 2015, dated 2020)

Experiments:
Format in all cases: cell-based, human
DU145 cells [1] = assay: Cell number count, DU145 cells; details: 0, 2, or 3 days after transfection
Source text: First, DU145 cells were transfected with siZIC5#1, siZIC5#2, siNeg#1, or siNeg#2 described in Table 2 in the same manner as Example 1, and the number of cells 0, 2, or 3 days after transfection was counted. The result of calculating a relative cell number of each cell (the number of cells on 0th day after transfection (before transfection) was set to 1) (n=3) is shown in FIG. 44.
The result of calculating a relative cell number of each cell (the number of cells on 0th day after transfection (before transfection) was set to 1) (n=3) is shown in FIG. 47.

SK-MEL-28 cells = assay: Cell morphology after siRNA transfection, SK-MEL-28 cells; details: not shown
A375 cells [2] = assay: Cell morphology after siRNA transfection, A375 cells; details: not shown
A375 cells [3] = assay: Cell cycle analysis (PI staining, flow cytometry), A375 cells; details: average value
Experimental: In cell cycle analysis, first, the cells were cultured in serum-free medium for 24 hours and then cultured in media containing 10% FBS for 24 hours. Next, the cells were fixed, stained with propidium iodide (PI), and then flow cytometry analysis (SH800, manufactured by Sony) was performed. The obtained data was analyzed using analysis software, FlowJo (manufactured by TOMY DIGITAL BIOLOGY, Tokyo, Japan). As a result, a sub-G1 population of cells increased in the cells in which Zic5 gene knockdown occurred.
(§1) Furthermore, a cell cycle of each cell was examined with respect to A375 cells. An average value (SD) of percentages (%) of cells in G1 population, S population, and G2M population of each cell is shown in Table 9. […] As a result, percentages of cells in the S population and G2M population of A375 cells were reduced by PDGFD gene knockdown.

A375 cells [4] = assay: Cell proliferation / cell number count, A375 cells
Experimental: In cell proliferation assay, A375 cells and SK-MEL-28 cells transfected with siZIC5#1, siZIC5#2, siNeg#1, or siNeg#2 described in Table 2 in the same manner as Example 1 were plated at 1,000 to 2,000 cells/well in 96-well plates. The number of cells transfected with each siRNA was measured over time. Regarding counting the number of cells, cell nuclei were stained with Hoechst 33342 (manufactured by Dojindo, Kumamoto, Japan), and the total cell number in each well was counted by using an IN Cell Analyzer 2000 (manufactured by GE Healthcare, Piscataway, N.J.).
as §1
In addition, the number of cells of A375 cells transfected with siPDGFD#1, siPDGFD#2, or siNeg#1 was successively counted. The statistical difference was determined using the Dunnett's multiple comparisons of means test (**: P<0.01, *: P<0.05).
The result of a relative cell number (n=3) in which the number of cells of the cells treated with rat IgG was set to 1 is shown in FIG. 28. […]

[5] = system: stably Zic5 gene-expressed line (SK-MEL-28 cells); assay: Transwell Migration Assay, stably Zic5 gene-expressed line; details: normalized to total viable cells; siNeg#1 set to 1
Experimental: Specifically, the stably Zic5 gene-expressed line and the stably Flag-expressed line were seeded in a 24-well plate into which an insert with 8-μm sized pores (manufactured by BD Biosciences) was put and were cultured in RPMI 1640 medium containing 10% FBS, and then the number of migrated cells was counted.
The influence of suppressing MLC2 phosphorylation on migration ability of cells was analyzed. Specifically, Transwell Migration Assay was performed in the same manner as above with the stably Zic5 gene-expressed line and the stably Flag-expressed line in a state of being treated or non-treated with a ROCK inhibitor (Y27632), and then the number of migrated cells was counted.
The number of migrated cells was normalized to a total number of viable cells. A relative cell number (n=3) in which the number of migrated cells transfected with siNeg#1 of each cell was set to 1 is shown in FIG. 29. The statistical difference was determined by the Tukey's multiple comparisons of means test (**: P<0.01, *: P<0.05).

[6] = system: phosphorylated FAK (pFAK); assay: Western blotting of phosphorylated FAK; details: siRNA-transfected cells vs siNeg#1; not shown
Source text: Because phosphorylation of focal adhesion kinase (FAK), which is activated at Focal adhesion, has been associated with melanoma malignancy (refer to NPL 19), FAK change by ZIC5 was examined. Furthermore, focusing on Integrin, alpha 6 (ITGA6) and platelet-derived growth factor D (PDGFD) among the Focal adhesion-related genes in the altered genes by Zic5 knockdown, change in cells was examined. Specifically, a level of phosphorylated FAK (pFAK), total FAK (FAK), ITGA6, pro-PDGFD, and β-actin in A375 cells transfected with siZIC5 or siNeg was assessed by western blotting. Western blotting was performed in the same manner as above except that anti-pFAK antibody (manufactured by Signalway Antibody), anti-FAK antibody (manufactured by Acris), anti-β-actin antibody (manufactured by Sigma), anti-ITGA6 antibody (manufactured by GeneTex), and anti-PDGFD antibody (manufactured by Santa Cruz) were used.

vemR-3 cells = assay: Annexin V-positive cells, vemR-3 cells; details: vs siNeg
Experimental: (§2) The percentage of Annexin V-positive cells was measured as follows. First, FITC labeled Annexin V (manufactured by MBL, Nagoya, Japan) and Hoechst33342 were added to each cell and incubated for 40 minutes. Next, a stained state of the incubated cells was analyzed by using DAPI filter and FITC filter of an imaging cytometer, “In Cell Analyzer 2000” (manufactured by GE healthcare). Percentage (%) of […] was determined by In Cell Analyzer Workstation 3.7 (manufactured by GE healthcare). The statistical difference was determined by the Tukey's multiple comparisons of means test (**: P<0.01, *: P<0.05).
A percentage of apoptotic cells in the obtained cells was detected by using FITC labeled Annexin V (manufactured by MBL, Nagoya, Japan) in the same manner as Example 7.

DU145 cells [7] = assay: Annexin V-positive cells, DU145 cells; details: siRNA then docetaxel 5 nM for 24 hours
Experimental: as §2

## siPDGFD#1: siRNA for PDGFD gene; targeting sequence CAGGAATTACTCGGTCAATAT (SEQ. NO. 28) (listed as DNA, chemistry not given here)
DU145 cells [1]
  relative cell number (0th day set to 1), cell proliferation rate: decreased
SK-MEL-28 cells
  morphological change of cells after siRNA transfection: morphological change occurred
A375 cells [2]
  morphological change of cells after siRNA transfection: morphological change occurred
A375 cells [3]
  percentage of cells in G1 population: 71.6%
  percentage of cells in G2M population: 18.6%
  percentage of cells in S population: 8.1%
A375 cells [4]
  relative cell number (siNeg#1 set to 1), cell proliferation rate: decrease in cell proliferation rate
[5]
  increase in the number of migrated cells by Zic5 gene overexpression: completely suppressed
[6]
  FAK phosphorylation (pFAK level): reduced FAK phosphorylation
vemR-3 cells
  percentage of Annexin V-positive cells: significantly increased
DU145 cells [7]
  apoptosis induced by docetaxel (percentage of Annexin V-positive cells): significantly increased
